Measurements: patent US9999601B2, “Composition and method for inhibition of nerve transmission” (NEUROQUEST INC., priority 2007, dated 2018)
Entries after “also recorded” stand apart in the source; their conditions may differ.

What was measured:
[1] = target: delayed rectifier current (Ikv), specifically Ikv 1.5 subtype (Homo sapiens, UniProt P22460); test: Whole cell patch clamp recordings (K+ channels); type: cell-based; conditions: for inhibition of delayed rectifying potassium channels (in words): 10 ppm (10 mcmol or 10 ppm); for percent inhibition of the delayed rectifier potassium current: at a concentration of Geranium oil that gave 40% inhibition; for inhibition of delayed rectifying potassium channels, comparison in words: concentration not given
Method: Whole cell patch clamp recordings (Axopatch 200B) were made using borosilicate patch pipettes of resistance 3-8 MΩ with an intracellular solution utilizing potassium chloride as the current carrier. Current clamp recording were conducted holding the membrane potential at −60 mV to characterize the firing property of the cells. Voltage clamp was performed to investigate the delayed rectifier current (Ikv), specifically Ikv 1.5 subtype. Statistical significance was assessed using ANOVA followed by Duncan's multiple-range test with P<0.05 taken as indicating significance. […] A synthetic blend of geranium oil containing proportions of geraniol and citronellol similar to natural geranium oil, but with other components removed, was compared to the following ratios of geraniol:citronellol; 2:8, 3:7, 4:6 and geranium oil. The synthetic blend of geranium oil gave a 50% inhibition of the delayed rectifying potassium channel current compared to a 40% inhibition for natural geranium oil.

[2] = test system: mouse hippocampal brain slice neurons (cortical neuron); test: Patch clamp electrophysiological studies of mouse hippocampal slices; type: cell-based; conditions: for inhibition of nerve transmission (in words): animal cortical nerve cells and dorsal root ganglion cells; for membrane currents, current-voltage relation (in words): bath-applied, 10 mV steps from −110 to −20 mV, FIG. 1, FIG. 2A-C
Method: Studies were conducted on mouse hippocampal brain slice preparations. In terms of the slice preparations, […] coronal brain slices were prepared from animals housed in a 12 hour light (ZT 0-12):12 hour dark (ZT 12-24) environment. Animals were anesthetized with isoflurane, decapitated, the brain rapidly removed and placed in ice cold, oxygenated (95% 02:5% C02), bicarbonate-buffered artificial cerebral spinal fluid (ACSF). A 1 cm^2 block of brain tissue containing the hippocampi was glued to a cutting surface and coronal slices were prepared using a Leica VT1000S microtome (Leica Microsystems). All slices were left to equilibrate for approximately one hour prior to the transfer to a recording chamber. Once transferred to the chamber, slices were continuously superfused with oxygenated ACSF at a rate of 3 ml/min @30° C. and recordings are generally made for the next 6-12 hours. Patch microelectrodes (5-8MΩ) made from borosilicate glass (Garner Glass Co.) and filled with K^+based internal patch solution composed of: (in mM) 120 K-acetate, 40 HEPES, 10 EGTA, 6 MgCl2, nystatin (450 μg/ml) or gramicidin B (5 μg/ml) and pluronic acid F127.
The perforated patch recording technique and will be used (Korn & Horn, 1989) and viable Hippocampal neurons were visually targeted using Infrared Differential Interference Contrast (IR-DIC) microscopy using a Leica DM LFSA scope. […] Recordings were made from 3 different patch rigs equipped with either […] patch clamp amplifiers interfaced via a Digidata 1322A to a PC computer or on, in terms of the studies performed on dissociated DRG neurons, a Zeiss Axoscop 200 inverted microscope equipped with an Axopatch 200B/Digidata 1322A using Pclamp 9.0 and Axoscope 9 software.
Test compounds were bath-applied by superfusion to examine for changes in excitability and/or attenuation of ion channels and the effects of compounds on evoked synaptic responses. Stimulating electrodes (concentric or bipolar) were placed within the slices and in accordance with the well known fiber tract pathways of passage for the
Superimposed responses to a series of 10 mV steps (250 ms) ranged from −110 to −20 mV are shown, (A) in control condition, (B) in presence of geraniol, and (C) after washout of the drug.
Typical response of a cortical neuron following a depolarizing current pulse of 0.4 nA is shown in FIGS. 2D, 2E and 2F, (D) in control condition, (E) in presence of geraniol, and (F) after recovery.
Mean current-voltage plots for 6 cortical neurons are plotted in FIG. 1.
Samples 1, 2 and 6 are examples of naturally-derived geranium oils; sample 3 is the synthetic composition as set out in Table 1, sample 4 is pure geraniol, sample 5 is pure citronellol and sample 4+5 is 50:50 (by volume) combination of geraniol and citronellol. Net current represents the difference between current measured in control condition and in presence of tested compound, in response to the same voltage step.

post-herpetic neuralgia = test: Human screening of synthetic geranium oil and geraniol in neuropathic pain (post-herpetic neuralgia); type: in vivo; conditions: topical pure geraniol, human neuropathic pain sufferers
Method: A synthetic blend of geranium oil (Table 1) was also tested in a panel of human neuropathic pain sufferers known to respond to naturally derived geranium oil. The geranium oil was topically applied in therapeutically effective amounts to areas of the human body affected with symptoms of neuropathic pain. Dosage amounts depended on the size of the patient's affected areas. […] Once administered, a typical positive response is a significant reduction in pain, often in minutes. A significant number of patients in the panel of neuropathic pain sufferers preferred the pain relieving effects of the synthetic blend of geranium oil, with known purified constituents, over the natural geranium oil.
Since natural geranium oil relieves neuropathic pain and inhibits the delayed rectifying potassium channel, and since synthetic geranium oil, geraniol, and citronellol all inhibit the delayed rectifying potassium channel, synthetic geranium oil and geraniol were tested on patients with post-herpetic neuralgia. A synthetic blend of geranium oil was tested in patients with post-herpetic neuralgia that were positive responders to natural geranium oil. […] Pure geraniol was then tested in these subjects.

post herpetic neuralgia = test: Case study, post herpetic neuralgia, topical pure geraniol; type: in vivo, human; conditions: over 30 minutes after topical application; one subject
From the text: person, Ht 68 inches, Weight 162 lb. BMI 24.7. History of shingles 4 years prior to study with residual pain (post herpetic neuralgia). The subject tried Neurontin™ (Pfizer, U.S.) for 1 week with only some help and quit 3-4 years prior to this study.
They had moderate pain that made it hard to concentrate on things other than the pain. […] They could sleep, but had to keep changing positions to do so. They described the post-herpetic neuralgia as the worst thing to have happened to […]. The subject's pain decreased by 78% with pure geraniol over the course of 30 minutes after topical application as measured on a standard visual analog scale.

Chain of delayed rectifier current (Ikv), specifically Ikv 1.5 subtype (P22460 whole entry): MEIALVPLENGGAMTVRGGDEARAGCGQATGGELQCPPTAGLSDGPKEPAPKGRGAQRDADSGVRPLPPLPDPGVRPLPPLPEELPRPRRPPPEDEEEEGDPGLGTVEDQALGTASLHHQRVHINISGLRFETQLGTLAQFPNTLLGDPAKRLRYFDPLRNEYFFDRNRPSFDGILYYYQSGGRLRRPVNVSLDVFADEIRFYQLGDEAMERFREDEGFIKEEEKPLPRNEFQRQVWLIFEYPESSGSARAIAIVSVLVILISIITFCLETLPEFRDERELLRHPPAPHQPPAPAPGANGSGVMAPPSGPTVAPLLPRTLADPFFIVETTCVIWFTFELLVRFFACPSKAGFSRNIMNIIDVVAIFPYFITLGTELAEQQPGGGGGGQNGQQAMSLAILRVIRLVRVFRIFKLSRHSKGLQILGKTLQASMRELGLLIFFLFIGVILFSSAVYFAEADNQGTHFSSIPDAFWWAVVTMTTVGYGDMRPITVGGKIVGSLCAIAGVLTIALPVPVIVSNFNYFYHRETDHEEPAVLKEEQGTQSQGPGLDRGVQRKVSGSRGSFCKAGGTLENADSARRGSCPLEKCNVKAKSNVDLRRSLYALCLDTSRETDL

inhibition of delayed rectifying potassium channels (in words) [1]	percent inhibition of the delayed rectifier potassium current [1] [%]	Structure (SMILES)	inhibition of delayed rectifying potassium channels, comparison in words [1]	inhibition of nerve transmission (in words) [2]	other results
positive	22	C=C(C)C1CC=C(C)C(=O)C1 (centres unmarked) [carvone, Carvone]			
positive	27	CC(C)=CCCC(C)CCO (centres unmarked) [citronellol, 3,7-dimethyloct-6-en-1-ol]	highest amount of inhibition; also recorded: highest activity	effectively inhibit nerve transmission	
positive	26	CC(C)=CCC/C(C)=C/CO [geraniol, 2,6-Octadien-1-ol, 3,7-dimethyl-, (2E)-]	highest amount of inhibition; also recorded: highest activity	effectively inhibit nerve transmission	neuropathic pain relief (in words) (post-herpetic neuralgia): almost immediate pain relief; also recorded: greatest effect on neuropathic pain relief; decrease of pain on visual analog scale (post herpetic neuralgia): 78%; membrane currents, current-voltage relation (in words) [2]: reduction in the membrane current amplitude; also recorded: reduction of membrane currents; membrane currents, current-voltage relation (in words) ([2]; listed as geraniol (test compound #4)): reduction of membrane currents; membrane currents, current-voltage relation (in words) ([2]; listed as sample #4 (Geraniol)): reduction of membrane currents; net current reduction, rank among tested samples ([2]; most negative voltage step (−110 mV), FIG. 3): greatest inhibition; action potentials (in words) ([2]; voltage steps or depolarizing current pulse of 0.4 nA, FIG. 2): inhibition of action potential
positive	22	CC(C)[C@@H]1CC[C@@H](C)CC1=O [menthone, Menthone]			
positive	14	CC(C)=CC1CC(C)CCO1 (centres unmarked) [rose oxide, Rose Oxide]			

Structure (SMILES)	inhibition of delayed rectifying potassium channels (in words) [1]	percent inhibition of the delayed rectifier potassium current [1] [%]	inhibition of delayed rectifying potassium channels, comparison in words [1]	inhibition of nerve transmission (in words) [2]	other results
C=CC(C)(O)CCC=C(C)C (centres unmarked) [linalool, Linalool]	positive	18			
